Patent US10047083B2, “Dihydropyrimidinoisoquinolinones and pharmaceutical compositions thereof for the treatment of inflammatory disorders” (GALAPAGOS NV, priority 2011, dated 2018)

Experiments:
human neutrophils [1] = assay: Human neutrophil migration assay (embelin-induced); assay type: cell-based
GPR84 [2] = biological target: T1, GPR84 (Homo sapiens, UniProt Q9NQS5); settings: Wang et al. (2006); WO 2007/027661A2; cited from earlier work
T1 construct: expressed in transfected cells; membranes used
T1 sequence (Q9NQS5 whole entry): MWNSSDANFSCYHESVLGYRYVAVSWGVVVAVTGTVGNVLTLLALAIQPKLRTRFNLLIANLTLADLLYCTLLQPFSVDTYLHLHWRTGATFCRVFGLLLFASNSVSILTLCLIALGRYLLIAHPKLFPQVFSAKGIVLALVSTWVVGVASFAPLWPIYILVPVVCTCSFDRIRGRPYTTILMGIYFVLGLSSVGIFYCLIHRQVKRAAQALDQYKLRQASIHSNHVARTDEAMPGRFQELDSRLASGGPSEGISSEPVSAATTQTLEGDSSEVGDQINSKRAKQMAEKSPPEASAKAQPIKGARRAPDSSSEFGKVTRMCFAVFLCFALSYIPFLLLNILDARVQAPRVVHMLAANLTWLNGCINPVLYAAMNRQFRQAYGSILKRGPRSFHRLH

human neutrophils [3] = assay: Human neutrophil migration assay (embelin-induced); assay type: cell-based; settings: neutrophils from human buffy coat, 30 min compound pre-incubation, migration towards embelin at EC80 for 1 h, ATPlite readout, read-out: human neutrophil migration inhibition (Neutrophils)
Procedure: 2. Cellular Assays 2.1. Human Neutrophil Migration Assay
The effect of agonists or antagonists for GPR84 can therefore be assayed in a neutrophil migration test. In the neutrophil migration assay, neutrophils, freshly isolated from buffy coats from human volunteers, are treated with a compound for 30 minutes. Subsequently, the neutrophils are transferred to the upper wells of a Corning HTS transwell 96 permeable support system, of which the lower wells are filled with a embelin solution at EC80 (concentration which gives 80% of the activity of GPR84). After 1 h of incubation, migration of the neutrophils towards embelin in the lower compartment can be quantified by measuring the ATP-content of the lower wells using the ATPlite luminescence ATP detection assay system (Perkin Elmer, Cat. No.: 436110).
A human buffy coat is diluted with an equal volume of ice cold DPBS. 20 mL of the diluted buffy coat is gently mixed with 4 mL of ACD buffer (140 mM citric acid, 200 mM sodium citrate and 220 mM dextrose). Then, 12 mL of the 6% dextran/0.9% NaCl solution (15 g dextran T2000 and 2.25 g NaCl dissolved in 250 mL H2O) is added to the mixture and the samples are inverted gently up to 20 times. The total volume was transferred to a new recipient and incubated at room temperature for 1 h for complete separation of the two phases to occur. The yellowish supernatant is then transferred to a clean centrifugation tube and centrifuged for 12 minutes at 1300 rpm and 4° C. After centrifugation, the supernatant is discarded and the remaining cell pellet is rapidly resuspended in 12 mL of ice-cold H2O for red blood cell lysis to occur. After 20 seconds, 4 mL of ice-cold 0.6 M KCl is added. Samples are mixed carefully and centrifuged for 6 minutes at 1300 rpm, 4° C. The supernatant is discarded and the red blood cell lysis procedure is repeated one more time. Subsequently, the cell pellet is resuspended in 4 mL of DPBS and layered over 5 mL of Lymphoprep (Nycomed Pharma, Cat. No.: 1114545) in a 15 mL centrifuge tube. After centrifugation for 12 min at 1300 rpm, 4° C., the supernatant is removed and the cell pellet, containing the neutrophils, is resuspended in 25 mL chemotaxis buffer (RPMI 1640 medium, supplemented with 10 mM HEPES; freshly made for each experiment)
A cell suspension of 8.9×10^6 cells per milliliter is prepared. 20 μL of compound solution in chemotaxis buffer is added to 180 μL cell suspension. The mixture is incubated at 37° C. for 30 minutes with intermediate resuspension of the cells after 15 minutes. Following this, 70 μL cell suspension is transferred to the upper compartment of a Corning HTS transwell 96 permeable support system with 5.0 μm pore size polycarbonate membrane (Corning, Cat. No.: 3387). The receiver well of the transwell system is then filled with 200 μL chemotaxis buffer containing compound and chemotactic agent (embelin). After incubation at 37° C. in 5% CO2 for 1 h, the upper plate of the transwell system is removed and the cell suspension in the receiver plate is transferred to a 96-well V-bottom plate. 50 μL of DPBS is added to the receiver plate to prevent remaining cells from drying out. The V-bottom plate is centrifuged for 6 minutes at 1500 rpm. The supernatant is removed and the cells are resuspended in 50 μL DPBS. The cells are then transferred back to the receiver plate of the transwell system. After this, 100 μL ATPlite solution (Perkin Elmer, Cat. No: 436110) was added to the cells. The plate is incubated for 10 minutes in the dark, while shaking. […] of cell lysate is then transferred to a white 96-well plate and luminescence is measured. The detected luminescent signal is considered as linearely related to the number of cells having migrated from the upper well to the receiver well.

GPR84 [4] = biological target: T1, GPR84; assay: GTPγS binding assay (GPR84); assay type: biochemical; settings: membranes from stable cell line over expressing GPR84; 3,3′ di indolylmethane at EC80
Outline: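 Membranes (20 μg/well) from a stable GPR84-overexpressing line, pre-incubated with 0.1 μM GDP for 15 min at 4° C, mixed with 0.1 nM [35S]GTPγS and WGA SpA beads in 20 mM HEPES pH 7.4, 5 mM MgCl2, 250 mM NaCl, 0.05% BSA, 75 ug/mL saponin; 90 min at room temperature, then scintillation counting.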

[5] = tested on: RAW264.7 murine macrophage-like cells; settings: RAW264.7 cells stimulated with LPS; cited from earlier work

IC50 (human neutrophils [3])	IC50 (GPR84 [4])	Structure (SMILES)	other results
		c1ccc2c(Cc3c[nH]c4ccccc34)c[nH]c2c1 [3,3′ di indolylmethane]	induction of neutrophil chemotaxis by GPR84 agonists (human neutrophils [1]): induce neutrophil chemo taxis
		c1ccc2c(Cc3c[nH]c4ccccc34)c[nH]c2c1 [3,3′ di-indolylmethane]	GPR84 agonist activity (GPR84 [2]): some GPR84 agonist activity
0.01 to 100 nM	0.01 to 100 nM	O=c1nc(OC[C@@H]2COCCO2)cc2n1CCc1cc(OCC3CCOCC3)ccc1-2 [Compound 159, 2-((S)-1-[1,4]dioxan-2-ylmethoxy)-9-(tetrahydro-pyran-4-ylmethoxy)-6,7-dihydro-pyrimido[6,1-a]isoquinolin-4-one]	
101 to 500 nM	101 to 500 nM	CC(C)(O)CCCc1ccc2c(c1)CCn1c-2cc(OC[C@@H]2COCCO2)nc1=O [Compound 160, 2-((S)-1-[1,4]dioxan-2-ylmethoxy)-9-(4-hydroxy-4-methyl-pentyl)-6,7-dihydro-pyrimido[6,1-a]isoquinolin-4-one]	
0.01 to 100 nM	101 to 500 nM	O=c1nc(OC[C@@H]2COCCO2)cc2n1CCc1cc(COCC3CCOCC3)ccc1-2 [Compound 161, 2-((S)-1-[1,4]dioxan-2-ylmethoxy)-9-(tetrahydro-pyran-4-ylmethoxymethyl)-6,7-dihydro-pyrimido[6,1-a]isoquinolin-4-one]	
0.01 to 100 nM	101 to 500 nM	COCCCc1ccc2c(c1)CCn1c-2cc(OC[C@H]2COCCO2)nc1=O [Compound 168, 2-((R)-1-[1,4]Dioxan-2-ylmethoxy)-9-(3-methoxy-propyl)-6,7-dihydro-pyrimido[6,1-a]isoquinolin-4-one]	
0.01 to 100 nM	101 to 500 nM	O=c1nc(OC[C@H]2COCCO2)cc2n1CCc1cc(CCC3(O)CCCC3)ccc1-2 [Compound 169, 2-((R)-1-[1,4]Dioxan-2-ylmethoxy)-9-[2-(1-hydroxy-cyclopentyl)-ethyl]-6,7-dihydro-pyrimido[6,1-a]isoquinolin-4-one]	
0.01 to 100 nM	0.01 to 100 nM	CCCOCCOc1ccc2c(c1)CCn1c-2cc(OC[C@@H]2COCCO2)nc1=O [Compound 170, 2-((S)-1-[1,4]Dioxan-2-ylmethoxy)-9-(2-propoxy-ethoxy)-6,7-dihydro-pyrimido[6,1-a]isoquinolin-4-one]	
0.01 to 100 nM	0.01 to 100 nM	CC(C)OCCOc1ccc2c(c1)CCn1c-2cc(OC[C@@H]2COCCO2)nc1=O [Compound 171, 2-((S)-1-[1,4]Dioxan-2-ylmethoxy)-9-(2-isopropoxy-ethoxy)-6,7-dihydro-pyrimido[6,1-a]isoquinolin-4-one]	
0.01 to 100 nM	0.01 to 100 nM	COCCCCc1ccc2c(c1)CCn1c-2cc(OC[C@@H]2COCCO2)nc1=O [Compound 174, 2-((S)-1-[1,4]Dioxan-2-ylmethoxy)-9-(4-methoxy-butyl)-6,7-dihydro-pyrimido[6,1-a]isoquinolin-4-one]	
		CCCCCCCCCC(=O)O [capric acid]	secretion of interleukin-12 p40 subunit (IL-12 p40) [5]: dose dependently increased
		CCCCCCCCCCCC(=O)O [lauric acid]	secretion of interleukin-12 p40 subunit (IL-12 p40) [5]: dose dependently increased
		CCCCCCCCCC(=O)[O-].[Na+] [sodiumdecanoate]	induction of neutrophil chemotaxis by GPR84 agonists (human neutrophils [1]): induce neutrophil chemo taxis
		CCCCCCCCCCC(=O)O [undecanoic acid]	secretion of interleukin-12 p40 subunit (IL-12 p40) [5]: dose dependently increased
